Reference: ChEMBL document CHEMBL5244273, “Tuberculosis: An Overview of the Immunogenic Response, Disease Progression, and Medicinal Chemistry Efforts in the Last Decade toward the Development of Potential Drugs for Extensively Drug-Resistant Tuberculosis Strains” (J Med Chem, 2021)
In brackets after ≈: the same amount, converted by molar mass.

Key:
[1] = system: Mycobacterium tuberculosis; experiment: Antimycobacterial activity against Mycobacterium tuberculosis H37Rv assessed as inhibition of bacterial growth incubated for 5 days by alamar blue assay; type: functional; conditions: 120 h, time 5 day
[2] = system: Mycobacterium tuberculosis; experiment: Antitubercular activity against Mycobacterium tuberculosis H37Rv assessed as inhibition of bacterial growth by alamar blue assay; type: functional
[3] = system: Mycobacterium tuberculosis; experiment: Potentiation of ethionamide induced antibacterial activity against Mycobacterium tuberculosis H37Rv expressing GFP incubated for 5 days by fluorescence based analysis; type: functional, organism-based; conditions: 120 h
[4] = system: Mycobacterium tuberculosis; experiment: Antimycobacterial activity against Mycobacterium tuberculosis H37Rv infected in human THP-1 cells assessed as inhibition of bacterial growth; type: functional, organism-based
[5] = system: Mycobacterium tuberculosis; experiment: Antimycobacterial activity against Mycobacterium tuberculosis H37Rv incubated for 3 weeks; type: functional; conditions: 504 h
[6] = system: Mycobacterium tuberculosis; experiment: Antimycobacterial activity against Mycobacterium tuberculosis H37Rv incubated for 4 weeks; type: functional; conditions: 672 h
[7] = system: Mycobacterium tuberculosis; experiment: Antimycobacterial activity against Mycobacterium tuberculosis H37Rv incubated for 2 weeks; type: functional; conditions: 336 h
[8] = system: Mycobacterium tuberculosis; experiment: Antimycobacterial activity against Mycobacterium tuberculosis H37Rv incubated for 5 weeks; type: functional; conditions: 840 h

Structure (SMILES): COc1ccc(Nc2nn3c(O)cc(C)nc3c2C(=O)Nc2ccc(F)c(Cl)c2)cc1
- MIC [1]: 25 µg/mL (≈ 56.6 µM)

Structure (SMILES): O=C(Cc1cccc(Br)c1)NNC(=O)c1ccncc1
- MIC [2]: 25 µg/mL (≈ 74.8 µM)

Structure (SMILES): O=C(CCCC(F)(F)F)N1CCC(c2cncc(Cl)c2)CC1
- EC50 [3]: < 150 nM
- IC50 [4]: 10 nM

Structure (SMILES): Nc1ccc(O)c(C(=O)NNC(=O)c2ccncc2)c1
- MIC [2]: 50 µg/mL (≈ 184 µM)

Structure (SMILES): O=C(NNC(=O)C1CCNC(Br)C1)c1ccncc1 (stereo not drawn)
- MIC [2]: 25 µg/mL (≈ 76.4 µM)

Structure (SMILES): O=C(CCC(F)(F)F)N1CCC(c2cncc(Cl)c2)C1 (stereo not drawn)
- EC50 [3]: < 150 nM
- IC50 [4]: 10 nM

Structure (SMILES): Cc1cc(O)n2nc(N3CCCC3)c(C(=O)Nc3ccc(Cl)c(Cl)c3)c2n1
- MIC [1]: 25 µg/mL (≈ 61.5 µM)

Structure (SMILES): O=C(CCC(F)(F)F)N1CCC(F)(c2ccnc(C(F)(F)F)c2)CC1
- EC50 [3]: < 150 nM
- IC50 [4]: 10 nM

Structure (SMILES): Cc1ccc(Nc2nn3c(O)cc(C)nc3c2C(=O)Nc2ccccc2)cc1
- MIC [1]: 100 µg/mL (≈ 268 µM)

Structure (SMILES): Cc1cc(O)n2nc(Nc3ccc(Cl)c(Cl)c3)c(C(=O)Nc3cccc(C)c3C)c2n1
- MIC [1]: 50 µg/mL (≈ 110 µM)

Structure (SMILES): O=C(CCC(F)(F)F)N1CCC(F)(c2ccc(F)nc2)CC1
- EC50 [3]: < 150 nM
- IC50 [4]: 10 nM

Structure (SMILES): O=C(CCC(F)(F)F)N1CCC(c2ccncc2F)CC1
- EC50 [3]: < 150 nM
- IC50 [4]: 10 nM

Structure (SMILES): O=C(/C=C/c1ccco1)NNC(=O)c1ccncc1
- MIC [2]: 12.5 µg/mL (≈ 48.6 µM)

Structure (SMILES): COc1ccc(NC(=O)c2c(Nc3ccccc3)nn3c(O)cc(C)nc23)cc1
- MIC [1]: 50 µg/mL (≈ 128 µM)

Structure (SMILES): Cc1ccc(Nc2nn3c(O)cc(C)nc3c2C(=O)Nc2ccc(F)c(Cl)c2)cc1
- MIC [1]: 12.5 µg/mL (≈ 29.4 µM)

Structure (SMILES): O=C(Cc1ccccc1Br)NNC(=O)c1ccncc1
- MIC [2]: 25 µg/mL (≈ 74.8 µM)

Structure (SMILES): CC(C)(C)n1cc(C(=O)O)c(=O)c2cc(F)c(-c3cccc(Cl)c3)cc21
- MIC [5]: 2 µg/mL (≈ 5.35 µM)
- MIC [6]: 2 µg/mL (≈ 5.35 µM)
- MIC [7]: 2 µg/mL (≈ 5.35 µM)
- MIC [8]: 4 µg/mL (≈ 10.7 µM)

Structure (SMILES): CC(C)c1ccc(-c2cc3c(cc2F)c(=O)c(C(=O)O)cn3C(C)(C)C)cc1
- MIC [5]: 4 µg/mL (≈ 10.5 µM)
- MIC [6]: 4 µg/mL (≈ 10.5 µM)
- MIC [7]: 2 µg/mL (≈ 5.24 µM)
- MIC [8]: 4 µg/mL (≈ 10.5 µM)

Structure (SMILES): Cc1ccc(Nc2nn3c(O)cc(C)nc3c2C(=O)Nc2ccc(Cl)cc2)c(C)c1
- MIC [1]: 50 µg/mL (≈ 119 µM)

Structure (SMILES): CC(C)(C)n1cc(C(=O)O)c(=O)c2cc(F)c(-c3ccccc3Cl)cc21
- MIC [5]: 8 µg/mL (≈ 21.4 µM)
- MIC [6]: 8 µg/mL (≈ 21.4 µM)
- MIC [7]: 8 µg/mL (≈ 21.4 µM)
- MIC [8]: 8 µg/mL (≈ 21.4 µM)

Structure (SMILES): CC(C)(C)n1cc(C(=O)O)c(=O)c2cc(F)c(-c3ccc(-c4ccccc4)cc3)cc21
- MIC [5]: 4 µg/mL (≈ 9.63 µM)
- MIC [6]: 4 µg/mL (≈ 9.63 µM)
- MIC [7]: 4 µg/mL (≈ 9.63 µM)
- MIC [8]: 4 µg/mL (≈ 9.63 µM)

Structure (SMILES): O=C(CCC(F)(F)F)N1CCC(c2cccc(Cl)n2)CC1
- EC50 [3]: < 150 nM
- IC50 [4]: 10 nM

Structure (SMILES): O=C(CCC(F)(F)F)N1CC(c2ccc(F)cc2F)C1
- EC50 [3]: < 10 nM
- IC50 [4]: 10 nM

Structure (SMILES): Cc1cc(O)n2nc(Nc3ccc(Cl)cc3)c(C(=O)Nc3ccccc3)c2n1
- MIC [1]: 50 µg/mL (≈ 127 µM)

Structure (SMILES): COc1ccc(Nc2nn3c(O)cc(C)nc3c2C(=O)Nc2ccc(C)cc2C)cc1
- MIC [1]: 50 µg/mL (≈ 120 µM)

Structure (SMILES): COc1ccc(NC(=O)c2c(NN3CCOCC3)nn3c(O)cc(C)nc23)cc1
- MIC [1]: 25 µg/mL (≈ 62.7 µM)

Structure (SMILES): Cc1ccccc1-c1cc2c(cc1F)c(=O)c(C(=O)O)cn2C(C)(C)C
- MIC [5]: 8 µg/mL (≈ 22.6 µM)
- MIC [6]: 8 µg/mL (≈ 22.6 µM)
- MIC [7]: 8 µg/mL (≈ 22.6 µM)
- MIC [8]: 16 µg/mL (≈ 45.3 µM)

Structure (SMILES): O=C(COc1ccccc1)NNC(=O)c1ccncc1
- MIC [2]: 25 µg/mL (≈ 92.2 µM)

Structure (SMILES): COc1ccc(NC(=O)c2c(Nc3ccc(OC)cc3)nn3c(O)cc(C)nc23)cc1
- MIC [1]: 12.5 µg/mL (≈ 29.8 µM)

Structure (SMILES): O=C(CCC(F)(F)F)N1CC(c2cc(F)c(F)c(F)c2)C1
- EC50 [3]: < 10 nM
- IC50 [4]: 10 nM

Structure (SMILES): COc1ccc(NC(=O)c2c(Nc3cccc(Cl)c3)nn3c(O)cc(C)nc23)cc1
- MIC [1]: 12.5 µg/mL (≈ 29.5 µM)

Structure (SMILES): CCOc1ccc(NC(=O)c2c(Nc3ccc(C)cc3C)nn3c(O)cc(C)nc23)cc1
- MIC [1]: 50 µg/mL (≈ 116 µM)

Structure (SMILES): O=C(CCC(F)(F)F)N1CCC(c2cncc(Cl)n2)CC1
- EC50 [3]: < 150 nM
- IC50 [4]: 10 nM

Structure (SMILES): Cc1cc(O)n2nc(Nc3ccccc3)c(C(=O)Nc3ccccc3)c2n1
- MIC [1]: 50 µg/mL (≈ 139 µM)

Structure (SMILES): Cc1ccc(-c2cc3c(cc2F)c(=O)c(C(=O)O)cn3C(C)(C)C)cc1
- MIC [5]: 1 µg/mL (≈ 2.83 µM)
- MIC [6]: 1 µg/mL (≈ 2.83 µM)
- MIC [7]: 1 µg/mL (≈ 2.83 µM)
- MIC [8]: 1 µg/mL (≈ 2.83 µM)

Structure (SMILES): O=C(Cc1ccccc1Cl)NNC(=O)c1ccncc1
- MIC [2]: 25 µg/mL (≈ 86.3 µM)

Structure (SMILES): CC(C)(C)OC(=O)Nc1ccc(-c2cc3c(cc2F)c(=O)c(C(=O)O)cn3C(C)(C)C)cc1
- MIC [5]: 4 µg/mL (≈ 8.8 µM)
- MIC [6]: 4 µg/mL (≈ 8.8 µM)
- MIC [7]: 4 µg/mL (≈ 8.8 µM)
- MIC [8]: 4 µg/mL (≈ 8.8 µM)

Structure (SMILES): Cc1cc(O)n2nc(Nc3ccc(Cl)cc3)c(C(N)=O)c2n1
- MIC [1]: 50 µg/mL (≈ 157 µM)

Structure (SMILES): O=C(CCC(F)(F)F)N1CCC(F)(c2ccccn2)CC1
- EC50 [3]: < 150 nM
- IC50 [4]: 10 nM

Structure (SMILES): COc1cccc(-c2cc3c(cc2F)c(=O)c(C(=O)O)cn3C(C)(C)C)c1
- MIC [5]: 1 µg/mL (≈ 2.71 µM)
- MIC [6]: 1 µg/mL (≈ 2.71 µM)
- MIC [7]: 1 µg/mL (≈ 2.71 µM)
- MIC [8]: 1 µg/mL (≈ 2.71 µM)

Structure (SMILES): CC(C)(C)n1cc(C(=O)O)c(=O)c2cc(F)c(Oc3ccccc3)cc21
- MIC [5]: 16 µg/mL (≈ 45 µM)
- MIC [6]: 16 µg/mL (≈ 45 µM)
- MIC [7]: 8 µg/mL (≈ 22.5 µM)
- MIC [8]: 16 µg/mL (≈ 45 µM)

Structure (SMILES): CCC(C)(C)n1cc(C(=O)O)c(=O)c2cc(F)c(-c3ccccc3)cc21
- MIC [5]: 16 µg/mL (≈ 45.3 µM)
- MIC [6]: 16 µg/mL (≈ 45.3 µM)
- MIC [7]: 8 µg/mL (≈ 22.6 µM)
- MIC [8]: 16 µg/mL (≈ 45.3 µM)

Structure (SMILES): COc1ccc(-c2cc3c(cc2F)c(=O)c(C(=O)O)cn3C2CC2)cn1
- MIC [5]: 0.5 µg/mL (≈ 1.41 µM)
- MIC [6]: 0.5 µg/mL (≈ 1.41 µM)
- MIC [7]: 0.5 µg/mL (≈ 1.41 µM)
- MIC [8]: 0.5 µg/mL (≈ 1.41 µM)

Structure (SMILES): O=C(CCC(F)(F)F)N1CCC(c2cncc(Cl)c2)CC1
- EC50 [3]: < 150 nM
- IC50 [4]: 10 nM
